# Counter-ions that a name gives are not always drawn. Square brackets hold non-standard residues; d marks the D form. Peptide text beside a SMILES is read from it. * marks the point of attachment. X2 = CC(C)[C@@H](C(=O)*)N(C)CCCCCCN1C(=O)CC(SC[C@H](N)C(=O)O)C1=O; X1 = CC(C)[C@@H](C(=O)*)N(C)CCCCCC(=O)NCCCC[C@H](N)C(=O)O; Dolaproine = CO[C@@H]([C@@H]1CCCN1)[C@@H](C)C(=O)O; Dil = CC[C@H](C)[C@H](NC)[C@@H](CC(=O)O)OC; X5 = C[C@@H](N*)[C@@H](O)c1ccccc1; Oxazinan2yl(1,2) = C1CCN(*)OC1; NMeV = CN[C@H](C(=O)O)C(C)C
# System: Caco2 cells
# Test: Cell permeability, flux assay using Caco2 cells
# Assay type: in vitro ADME
# Conditions: 2 hours
# Protocol: C-3.3 In Vitro Tests for Determining Cell Permeability
# The cell permeability of a substance can be investigated by means of in vitro testing in a flux assay using Caco2 cells (M. D. Troutman and D. R. Thakker, Pharm. Res. 20(8):1210-1224 (2003)). To do so, the cells are cultured on 24-hole filter plates for 15-16 days. To determine the permeation, the respective test substance in a HEPES buffer was applied to the cells either apically (A) or basally (B) and incubated for 2 hours. After 0 h and 2 h, samples were taken from the cis and trans compartments. The samples were separated by HPLC (Agilent 1200, Biblingen, Germany) using reverse-phase columns. The HPLC system was linked to a triple quadrupole mass spectrometer API 4000 (Applied Biosystems Applera, Darmstadt, Germany) via a turbo ion spray interface. Permeability was evaluated on the basis of a Papp value which was calculated by means of the formula published by Schwab et al. (D. Schwab et al., J. Med. Chem. 46, 1716-1725 (2003)).
# The permeability of B to A (Papp (B-A)) is of crucial importance for toxophores but are released intracellularly: the lower this permeability, the longer is the dwell time of the substance in the cell after intracellular release and thus also the time available for interaction with the biochemical target (here tubulin).
row,Structure (SMILES),Papp (B-A)
1,"CC[C@H](C)[C@@H]([C@@H](CC(=O)N1CCC[C@H]1[C@H](OC)[C@@H](C)C(=O)N[C@@H](Cc1c[nH]c2ccccc12)C(N)=O)OC)N(C)C(=O)[C@@H](NC(=O)[C@H](C(C)C)N(C)CCCC(=O)NNC(=O)CCCCCN1C(=O)CC(SC[C@H](N)C(=O)O)C1=O)C(C)C (stereo partly drawn) [Example 233, N-(4-{2-[6-(3-{[(2R)-2-amino-2-carboxyethyl]sulfanyl}-2,5-dioxopyrrolidin-1-yl)hexanoyl]hydrazino}-4-oxobutyl)-N-methyl-L-valyl-N-[(3R,4S,5S)-1-{(2S)-2-[(1R,2R)-3-{[(2S)-1-amino-3-(1H-indol-3-yl)-1-oxopropan-2-yl]amino}-1-methoxy-2-methyl-3-oxopropyl]pyrrolidin-1-yl}-3-methoxy-5-methyl-1-oxoheptan-4-yl]-N-methyl-L-valinamide]",2 nm/s
2,"CC[C@H](C)[C@@H]([C@@H](CC(=O)N1CCC[C@H]1[C@H](OC)[C@@H](C)C(=O)N[C@@H](Cc1c[nH]c2ccccc12)C(=O)O)OC)N(C)C(=O)[C@@H](NC(=O)[C@H](C(C)C)N(C)CCCC(=O)NNC(=O)CCCCCN1C(=O)CC(SC[C@H](N)C(=O)O)C1=O)C(C)C (stereo partly drawn) [Example 234, N-(4-{2-[6-(3-{[(2R)-2-amino-2-carboxyethyl]sulfanyl}-2,5-dioxopyrrolidin-1-yl)hexanoyl]hydrazino}-4-oxobutyl)-N-methyl-L-valyl-N-[(3R,4S,5S)-1-{(2S)-2-[(1R,2R)-3-{[(1S)-1-carboxy-2-(1H-indol-3-yl)ethyl]amino}-1-methoxy-2-methyl-3-oxopropyl]pyrrolidin-1-yl}-3-methoxy-5-methyl-1-oxoheptan-4-yl]-N-methyl-L-valinamide]",1.6 nm/s
3,"CC[C@H](C)[C@@H]([C@@H](CC(=O)N1CCC[C@H]1[C@H](OC)[C@@H](C)C(=O)N[C@@]1(C(=O)N2CCCCO2)C[C@@H]1c1ccccc1)OC)N(C)C(=O)[C@@H](NC(=O)[C@H](C(C)C)N(C)CCCC(=O)NNC(=O)CCCCCN1C(=O)CC(SC[C@H](N)C(=O)O)C1=O)C(C)C (stereo partly drawn) [Example 235, N-(4-{2-[6-(3-{[(2R)-2-amino-2-carboxyethyl]sulfanyl}-2,5-dioxopyrrolidin-1-yl)hexanoyl]hydrazino}-4-oxobutyl)-N-methyl-L-valyl-N-[(3R,4S,5S)-3-methoxy-1-{(2S)-2-[(1R,2R)-1-methoxy-2-methyl-3-{[(1S,2R)-1-(1,2-oxazinan-2-ylcarbonyl)-2-phenylcyclopropyl]amino}-3-oxopropyl]pyrrolidin-1-yl}-5-methyl-1-oxoheptan-4-yl]-N-methyl-L-valinamide]",2.5 nm/s
4,"CC[C@H](C)[C@@H]([C@@H](CC(=O)N1CCC[C@H]1[C@H](OC)[C@@H](C)C(=O)N[C@@H](Cc1c[nH]c2ccccc12)C(N)=O)OC)N(C)C(=O)[C@@H](NC(=O)[C@H](C(C)C)N(C)CCCCCCN1C(=O)CC(SC[C@H](N)C(=O)O)C1=O)C(C)C (stereo partly drawn) [Example 236, N-[6-(3-{[(2R)-2-amino-2-carboxyethyl]sulfanyl}-2,5-dioxopyrrolidin-1-yl)hexyl]-N-methyl-L-valyl-N-[(3R,4S,5S)-1-{(2S)-2-[(1R,2R)-3-{[(2S)-1-amino-3-(1H-indol-3-yl)-1-oxopropan-2-yl]amino}-1-methoxy-2-methyl-3-oxopropyl]pyrrolidin-1-yl}-3-methoxy-5-methyl-1-oxoheptan-4-yl]-N-methyl-L-valinamide] (X2-V[Dil][Dolaproine]W-NH2)",5 nm/s
5,"CC[C@H](C)[C@@H]([C@@H](CC(=O)N1CCC[C@H]1[C@H](OC)[C@@H](C)C(=O)N[C@@H](Cc1c[nH]c2ccccc12)C(=O)O)OC)N(C)C(=O)[C@@H](NC(=O)[C@H](C(C)C)N(C)CCCCCCN1C(=O)CC(SC[C@H](N)C(=O)O)C1=O)C(C)C (stereo partly drawn) [Example 237, N-[6-(3-{[(2R)-2-amino-2-carboxyethyl]sulfanyl}-2,5-dioxopyrrolidin-1-yl)hexyl]-N-methyl-L-valyl-N-[(3R,4S,5S)-1-{(2S)-2-[(1R,2R)-3-{[(1S)-1-carboxy-2-(1H-indol-3-yl)ethyl]amino}-1-methoxy-2-methyl-3-oxopropyl]pyrrolidin-1-yl}-3-methoxy-5-methyl-1-oxoheptan-4-yl]-N-methyl-L-valinamide] (X2-V[Dil][Dolaproine]W-OH)",1 nm/s
6,"CC[C@H](C)[C@@H]([C@@H](CC(=O)N1CCC[C@H]1[C@H](OC)[C@@H](C)C(=O)N[C@@H](Cc1c[nH]c2ccccc12)C(=O)NCc1ccccc1)OC)N(C)C(=O)[C@@H](NC(=O)[C@H](C(C)C)N(C)CCCC(=O)NNC(=O)CCCCCN1C(=O)CC(SC[C@H](N)C(=O)O)C1=O)C(C)C (stereo partly drawn) [Example 239, N-(4-{2-[6-(3-{[(2R)-2-amino-2-carboxyethyl]sulfanyl}-2,5-dioxopyrrolidin-1-yl)hexanoyl]hydrazino}-4-oxobutyl)-N-methyl-L-valyl-N-[(3R,4S,5S)-1-{(2S)-2-[(1R,2R)-3-{[(2S)-1-(benzylamino)-3-(1H-indol-3-yl)-1-oxopropan-2-yl]amino}-1-methoxy-2-methyl-3-oxopropyl]pyrrolidin-1-yl}-3-methoxy-5-methyl-1-oxoheptan-4-yl]-N-methyl-L-valinamide]",7 nm/s
7,"CC[C@H](C)[C@@H]([C@@H](CC(=O)N1CCC[C@H]1[C@H](OC)[C@@H](C)C(=O)N[C@@H](Cc1c[nH]c2ccccc12)C(=O)N1CCCCO1)OC)N(C)C(=O)[C@@H](NC(=O)[C@H](C(C)C)N(C)CCCCCC(=O)NCCCC[C@H](N)C(=O)O)C(C)C [Example 277, N-(6-{[(5S)-5-amino-5-carboxypentyl]amino}-6-oxohexyl)-N-methyl-L-valyl-N-[(3R,4S,5S)-1-{(2S)-2-[(1R,2R)-3-{[(2S)-3-(1H-indol-3-yl)-1-(1,2-oxazinan-2-yl)-1-oxopropan-2-yl]amino}-1-methoxy-2-methyl-3-oxopropyl]pyrrolidin-1-yl}-3-methoxy-5-methyl-1-oxoheptan-4-yl]-N-methyl-L-valinamide trifluoroacetate] (X1-V[Dil][Dolaproine]W-{Oxazinan2yl(1,2)})",2 nm/s
8,"CC[C@H](C)[C@@H]([C@@H](CC(=O)N1CCC[C@H]1[C@H](OC)[C@@H](C)C(=O)N[C@@H](Cc1c[nH]c2ccccc12)C(=O)O)OC)N(C)C(=O)[C@@H](NC(=O)[C@H](C(C)C)N(C)CCCCCC(=O)NCCCC[C@H](N)C(=O)O)C(C)C [Example 278, N-(6-{[(5S)-5-amino-5-carboxypentyl]amino}-6-oxohexyl)-N-methyl-L-valyl-N-[(3R,4S,5S)-1-{(2S)-2-[(1R,2R)-3-{[(1S)-1-carboxy-2-(1H-indol-3-yl)ethyl]amino}-1-methoxy-2-methyl-3-oxopropyl]pyrrolidin-1-yl}-3-methoxy-5-methyl-1-oxoheptan-4-yl]-N-methyl-L-valinamide] (X1-V[Dil][Dolaproine]W-OH)",1 nm/s
9,"CC[C@H](C)[C@@H]([C@@H](CC(=O)N1CCC[C@H]1[C@H](OC)[C@@H](C)C(=O)N[C@H](C)[C@@H](O)c1ccccc1)OC)N(C)C(=O)[C@@H](NC(=O)[C@@H](NC)C(C)C)C(C)C [monomethyl auristatin E (MMAE), monomethyl auristatin E, reference compound] (H-[NMeV]V[Dil][Dolaproine]-X5)",73 nm/s
10,"CC[C@H](C)[C@@H]([C@@H](CC(=O)N1CCC[C@H]1[C@H](OC)[C@@H](C)C(=O)N[C@@H](Cc1ccccc1)C(=O)O)OC)N(C)C(=O)[C@@H](NC(=O)[C@@H](NC)C(C)C)C(C)C [monomethyl auristatin F (MMAF), monomethyl auristatin F, reference compound] (H-[NMeV]V[Dil][Dolaproine]F-OH)",73 nm/s

# System: various carcinoma cell lines
# Test: not given
# Conditions: in comparison with MMAE; cited from earlier work
row,Structure (SMILES),antiproliferative effect
1,"CC[C@H](C)[C@@H]([C@@H](CC(=O)N1CCC[C@H]1[C@H](OC)[C@@H](C)C(=O)N[C@@H](Cc1ccccc1)C(=O)O)OC)N(C)C(=O)[C@@H](NC(=O)[C@@H](NC)C(C)C)C(C)C [MMAF, Monomethylauristatin F] (H-[NMeV]V[Dil][Dolaproine]F-OH)",only a moderate antiproliferative effect

# Same assay, conditions: in comparison with MMAF, various carcinoma cell lines; cited from earlier work
row,Structure (SMILES),in vitro cytotoxicity
1,"CC[C@H](C)[C@@H]([C@@H](CC(=O)N1CCC[C@H]1[C@H](OC)[C@@H](C)C(=O)N[C@@H](Cc1ccccc1)C(=O)OC)OC)N(C)C(=O)[C@@H](NC(=O)[C@@H](NC)C(C)C)C(C)C [MMAF-OMe, Monomethylauristatin F-methylester] (H-[NMeV]V[Dil][Dolaproine]F-OMe)",greater by several orders of magnitude

# Source: patent US20150246136A1, “NOVEL BINDER-DRUG CONJUGATES (ADCs) AND USE OF SAME” (priority 2011, published 2015)
